One assay addresses AMPK (A2/B1/G2) (Homo sapiens, UniProt P54646+Q9UGJ0+Q9Y478). The assay can be described thus: AMPK kinase binding activity in activation mode (AC50). In kind it is biochemical. The text has this: In Vitro AMPK Kinase Inhibition Experiments
The next assay addresses AMPK (A2/B1/G3) (Homo sapiens, UniProt P54646+Q9UGI9+Q9Y478). The assay is described as above. Format: biochemical.
In assay [1] the test system is human hepatocytes-THLE-2 cells. The assay can be described thus: Glucose uptake assay, THLE-2 cells. Format: cell-based. The method, then:
FIGS. 13-16 show results for glucose update assays in THLE-2 cells (ATCC, cat. No. CRL-2706) when treated with compound I-11 (FIG. 13), compound I-7 (FIG. 14), MK-8722 (FIG. 15), and PF-06409577 (FIG. 16). The THLE-2 cells were starved for 3 hours in high glucose DMEM without FBS, treated with the components noted above in DMEM without FBS/glucose for 1 hour, and glucose uptake was detected using a glucose uptake kit (Promega). The bars show (from left to right) concentrations of 100 μM, 33 μM, 11 μM, 3.7 μM, 1.23 μM, 0.41 μM, 0.14 μM, 0.045 μM, 0.015 μM, 0.005 μM, 0 μM, and insulin.
(§1) Human skeletal myoblasts were obtained (Thermofisher; BYU) and cultured in DMEM/F12 medium with 10% FBS. For differentiation, 2% horse serum low glucose DMEM medium was employed for 72 hours. Human cardiomyocytes cells (HCM cells; Promocell) were cultured in myocyte growth medium (Promocell). Human preadipocyte HWP-c cells (Promocell) were obtained from upper arm of diabetic II donor. Human preadipocyte HWP-c cells (Promocell) were obtained from abdomen of diabetic II donor. For differentiating human preadipocytes, cells were cultured in preadipocyte growth medium to total confluency stage. The growth medium was replaced with preadipocyte differentiation medium for 72 hours, then changed to PromoCell adipocyte nutrition medium to complete the differentiation process. THLE-2 cells were cultured in BEGM from Lonza/Clonetics Corporation, Walkersville, MD 21793 (BEGM Bullet Kit; CC3170). HepG2, L6 and C2Cl2 cells were cultured in EMEM medium.
(§2) After differentiation myoblasts, preadipocyte cells were starved by removing the medium and adding 100 μL DMEM without serum. The medium was then replaced with 100 μL DMEM±1 μM insulin at indicated concentration of representative compounds without serum or glucose. The cells were then incubated for 1 hour at 37° C. in 5% CO2. The cells were then removed from the medium and 50 μL of 0.1 mM 2DG in PBS was added. Cells were incubated for 30 minutes at 25° C. 25 μL of Stop Buffer was added and samples were mixed. 25 μL of Neutralization Buffer was then added and mixed. 100 μL of 2DG6P Detection Reagent was then added and mixed. Samples were then incubated for 1 hour at 25° C. Luminescence was then recorded with 0.3-1 second integration on a luminometer.

Assay [2] relates to human cardiomyocyte cells (HCM). The assay can be described thus: Glucose uptake assay, human cardiomyocyte cells. In kind it is cell-based. The conditions noted are these: for glucose uptake: donor not stated; for AMPK activation activity (glucose uptake assay): 10 doses 100 μM to 0.005 μM. The procedure:
FIGS. 17-19 show results for glucose update assays in human cardiomyocyte cells (“HCM”-healthy donor) (Promocell, cat. no. C-12810) when treated with compound I-11 (FIG. 17), compound I-7 (FIG. 18), and PF-06409577 (FIG. 19). After recovered HCM cells for 4 days, cells were starved for 3 hours in high glucose DMEM without FBS, treated with the components noted above in DMEM without FBS/glucose for 1 hour, and glucose uptake was detected using a glucose uptake kit (Promega). […] The bars show (from left to right) concentrations of 100 μM, 33 μM, 11 μM, 3.7 μM, 1.23 μM, 0.41 μM, 0.14 μM, 0.045 μM, 0.015 μM, 0.005 μM, 0 μM, and insulin.
FIGS. 20-22 show results for glucose update assays in human cardiomyocyte cells (“HCM”-diabetic donor) (Promocell, cat. no. C-12810) when treated with compound I-11 (FIG. 20), compound I-7 (FIG. 21), and PF-06409577 (FIG. 22). After recovered HCM cells for 4 days, cells were starved for 3 hours in high glucose DMEM without FBS, treated with the components noted above in DMEM without FBS/glucose for 1 hour, and glucose uptake was detected using a glucose uptake kit (Promega). […] The bars show (from left to right) concentrations of 100 μM, 33 μM, 11 μM, 3.7 μM, 1.23 μM, 0.41 μM, 0.14 μM, 0.045 μM, 0.015 μM, 0.005 μM, 0 μM, and insulin.
as §1, §2

The subject of assay [3] is Human white preadipocyte (HWP) cells. The assay can be described thus: Glucose uptake assay, human white preadipocyte cells. Format: cell-based. The conditions noted are these: for glucose uptake: human adipocyte cells / HWP-c cells, donor site not stated. The procedure: (§3) FIGS. 5-8 show results for glucose update assays in Human white preadipocyte (HWP) cells (Promocell, cat. No. C-12735) when treated with compound I-11 (FIG. 5), compound I-7 (FIG. 6), MK-8722 (FIG. 7), and PF-06409577 (FIG. 8). HWP cells (subcutaneous upper arm of obese patient) were starved for 3 hours in DMEM without FBS, treated with the components noted above in […] DMEM without FBS/glucose for 1 hour, and glucose uptake was detected using a glucose uptake kit (Promega). […] The bars show (from left to right) concentrations of 100 μM, 33 μM, 11 μM, 3.7 μM, 1.23 μM, 0.41 μM, 0.14 μM, 0.045 μM, 0.015 μM, 0.005 μM, 0 μM, and insulin.
as §3, with “9-12” for “5-8”, “9),” for “5),”, “10),” for “6),”, “11),” for “7),”, “12).” for “8).”, “(abdomen cells)” for “(subcutaneous upper arm of obese patient)”
as §1, §2

For assay [4], the system named is human skeletal muscle cells (HSKM cells). The assay can be described thus: Glucose uptake assay, human skeletal muscle cells. In kind it is cell-based. The following applies: for glucose uptake: starved, treated 1 hour. The method, then: FIGS. 1-4 show results for cells treated with differing doses of representative compounds of Structure (I) (i.e., compound I-11 in FIG. 1 and compound I-7 in FIG. 2) as well reference compounds (i.e., PF-06409577 in FIG. 3 and MK-8722 in FIG. 4). […] Cells were starved for 3 hours in high glucose DMEM without FBS, then treated with indicated compounds in DMEM without FBS/glucose for 1 hour, and glucose uptake was detected using an uptake glucose kit (Promega). The bars show (from left to right) concentrations of 100 μM, 33 μM, 11 μM, 3.7 μM, 1.23 μM, 0.41 μM, 0.14 μM, 0.045 μM, 0.015 μM, 0.005 μM, 0 μM, and insulin.
as §1, §2

The target in the next assay is AMPK (A2/B1/G1) (Homo sapiens, UniProt P54619+P54646+Q9Y478). Kind of assay: AMPK kinase binding activity in activation mode (AC50). In kind it is biochemical.
Chain of AMPK (A2/B1/G1) (P54646 whole entry): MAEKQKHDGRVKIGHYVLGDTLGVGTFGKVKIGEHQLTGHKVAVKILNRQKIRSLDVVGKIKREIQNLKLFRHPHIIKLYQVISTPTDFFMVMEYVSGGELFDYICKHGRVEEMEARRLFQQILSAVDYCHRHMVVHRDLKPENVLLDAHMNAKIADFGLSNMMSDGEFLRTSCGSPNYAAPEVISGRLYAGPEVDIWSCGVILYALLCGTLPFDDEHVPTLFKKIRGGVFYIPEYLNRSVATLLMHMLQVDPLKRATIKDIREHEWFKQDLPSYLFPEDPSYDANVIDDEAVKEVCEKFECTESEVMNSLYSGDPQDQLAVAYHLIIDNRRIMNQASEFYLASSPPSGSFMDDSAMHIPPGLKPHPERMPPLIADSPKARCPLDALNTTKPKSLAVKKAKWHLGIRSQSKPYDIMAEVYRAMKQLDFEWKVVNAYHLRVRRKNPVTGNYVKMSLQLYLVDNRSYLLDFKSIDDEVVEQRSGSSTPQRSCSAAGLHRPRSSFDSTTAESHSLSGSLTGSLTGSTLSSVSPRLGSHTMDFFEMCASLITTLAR
Chain of AMPK (A2/B1/G1) (Q9Y478 whole entry): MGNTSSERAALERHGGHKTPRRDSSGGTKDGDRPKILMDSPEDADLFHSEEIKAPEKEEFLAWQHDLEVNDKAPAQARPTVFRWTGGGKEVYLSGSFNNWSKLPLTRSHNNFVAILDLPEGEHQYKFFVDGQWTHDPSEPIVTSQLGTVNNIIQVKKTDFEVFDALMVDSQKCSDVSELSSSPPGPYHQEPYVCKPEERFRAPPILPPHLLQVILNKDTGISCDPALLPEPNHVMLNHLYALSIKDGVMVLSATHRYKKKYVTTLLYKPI
Chain of AMPK (A2/B1/G1) (P54619 whole entry): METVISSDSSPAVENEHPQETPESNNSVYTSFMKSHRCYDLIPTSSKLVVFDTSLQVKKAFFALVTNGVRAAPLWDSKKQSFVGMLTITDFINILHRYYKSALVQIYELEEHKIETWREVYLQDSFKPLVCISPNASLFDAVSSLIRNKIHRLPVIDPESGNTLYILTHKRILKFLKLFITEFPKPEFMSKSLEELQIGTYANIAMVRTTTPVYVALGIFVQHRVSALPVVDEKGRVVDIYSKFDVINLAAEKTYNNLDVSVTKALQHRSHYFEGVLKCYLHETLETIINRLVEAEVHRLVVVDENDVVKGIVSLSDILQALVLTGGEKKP
The subject of assay [5] is AMPK signal pathway in HSKM cells. Kind of assay: Western blot assay, HSKM cells. In kind it is cell-based, human. The following applies: some high dosage groups; cell type not given. (In western blotting, separated proteins are transferred to a membrane and probed.)

Entries after “also recorded” stand apart in the source; their conditions may differ. Where only a bound is given, the exact number is not on record here.

Chain of AMPK (A2/B1/G3) (P54646 whole entry): as the sequence (P54646 whole entry) above
Chain of AMPK (A2/B1/G3) (Q9Y478 whole entry): as the sequence (Q9Y478 whole entry) above
Chain of AMPK (A2/B1/G3) (Q9UGI9 whole entry): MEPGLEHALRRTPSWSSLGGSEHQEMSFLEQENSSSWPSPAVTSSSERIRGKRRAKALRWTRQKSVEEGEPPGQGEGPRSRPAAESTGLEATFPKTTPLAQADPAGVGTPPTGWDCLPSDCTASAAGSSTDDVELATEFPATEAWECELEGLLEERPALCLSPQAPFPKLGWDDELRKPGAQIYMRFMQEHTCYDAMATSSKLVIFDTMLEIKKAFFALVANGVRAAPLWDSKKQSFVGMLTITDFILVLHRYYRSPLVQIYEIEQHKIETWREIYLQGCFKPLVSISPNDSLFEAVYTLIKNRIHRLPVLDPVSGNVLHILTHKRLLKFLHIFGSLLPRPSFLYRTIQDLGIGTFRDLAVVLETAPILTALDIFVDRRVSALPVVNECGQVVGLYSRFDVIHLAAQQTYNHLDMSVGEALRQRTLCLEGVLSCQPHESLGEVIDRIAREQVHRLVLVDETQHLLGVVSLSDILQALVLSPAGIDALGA
Chain of AMPK (A2/B1/G2) (P54646 whole entry): as the sequence (P54646 whole entry) above
Chain of AMPK (A2/B1/G2) (Q9Y478 whole entry): as the sequence (Q9Y478 whole entry) above
Chain of AMPK (A2/B1/G2) (Q9UGJ0 whole entry): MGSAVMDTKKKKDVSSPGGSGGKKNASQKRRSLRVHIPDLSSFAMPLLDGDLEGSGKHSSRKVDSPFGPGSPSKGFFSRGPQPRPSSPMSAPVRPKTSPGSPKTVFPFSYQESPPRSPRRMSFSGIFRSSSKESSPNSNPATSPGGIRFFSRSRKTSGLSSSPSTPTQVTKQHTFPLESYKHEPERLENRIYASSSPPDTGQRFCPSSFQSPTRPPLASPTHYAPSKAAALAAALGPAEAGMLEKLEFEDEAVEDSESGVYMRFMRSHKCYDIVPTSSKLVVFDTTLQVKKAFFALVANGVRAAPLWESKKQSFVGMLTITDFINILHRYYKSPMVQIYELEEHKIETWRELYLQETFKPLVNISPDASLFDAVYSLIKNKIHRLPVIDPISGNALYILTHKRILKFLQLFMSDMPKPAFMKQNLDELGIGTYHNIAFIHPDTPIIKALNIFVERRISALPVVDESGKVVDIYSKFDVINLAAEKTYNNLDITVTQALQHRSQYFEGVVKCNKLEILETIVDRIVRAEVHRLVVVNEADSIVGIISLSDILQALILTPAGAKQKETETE

As a reminder, the AC50 is the midpoint of the concentration-response curve, whichever way the signal moves. High values mean weaker potency, low ones greater potency. As for `O=c1[nH]c(-c2c[nH]c3cc(Cl)c(-c4ccc(C5(O)CCC5)cc4)cc23)no1` [Compound I-1, 3-(6-chloro-5-(4-(1-hydroxycyclobutyl)phenyl)-1H-indol-3-yl)-1,2,4-oxadiazol-5(4H)-one], the AC50 is at most 10 nM at AMPK (A2/B1/G2), at most 10 nM on AMPK (A2/B1/G3) and 10 to 500 nM on AMPK (A2/B1/G1). Moreover, the glucose uptake result in assay [1] is listed as “induced glucose uptake”; in assay [2], “did not induce glucose uptake in dose-dependent manner”; in assay [3] it was “induced glucose uptake”; in assay [4] it was “induced glucose uptake; also recorded: increased glucose uptake”. Further, the “p-AMPK, p-ACC, and p-Raptor expression” value in assay [5] was “could induce”.
`COc1ccc(-c2c(F)cc3[nH]cc(-c4noc(=O)[nH]4)c3c2F)c(OC)n1` [Compound I-17, 3-(5-(2,6-dimethoxypyridin-3-yl)-4,6-difluoro-1H-indol-3-yl)-1,2,4-oxadiazol-5(4H)-one]: the AC50 at AMPK (A2/B1/G2), at AMPK (A2/B1/G3) and on AMPK (A2/B1/G1) was 500 to 5000 nM in each case.
For `O=c1[nH]c(-c2c[nH]c3ccc(N4CC[C@H](O)C4)cc23)no1` [Compound I-20, (S)-3-(5-(3-hydroxypyrrolidin-1-yl)-1H-indol-3-yl)-1,2,4-oxadiazol-5(4H)-one], the AC50 on AMPK (A2/B1/G3) lay in the range of 500 to 5000 nM; on AMPK (A2/B1/G1), 5000 to 7500 nM.
Consider `COc1ncccc1-c1cc2c(-c3noc(=O)[nH]3)c[nH]c2cc1F` [Compound I-15, 3-(6-fluoro-5-(2-methoxypyridin-3-yl)-1H-indol-3-yl)-1,2,4-oxadiazol-5(4H)-one], for which the values for the half-maximal activity concentration (AC50) on AMPK (A2/B1/G2), at AMPK (A2/B1/G3) and on AMPK (A2/B1/G1) were at most 10 nM, 10 to 500 nM and 10 to 500 nM, respectively.
With `COc1ccc(-c2cc3c(-c4noc(=O)[nH]4)c[nH]c3cc2F)cn1` [Compound I-16, 3-(6-fluoro-5-(6-methoxypyridin-3-yl)-1H-indol-3-yl)-1,2,4-oxadiazol-5(4H)-one], the concentration at half-maximal activity (AC50) was 500 to 5000 nM on AMPK (A2/B1/G2), 500 to 5000 nM at AMPK (A2/B1/G3) and 5000 to 7500 nM on AMPK (A2/B1/G1).
For the compound `O=c1[nH]c(-c2c[nH]c3cc(F)c(-c4ccc(C5(O)COC5)cc4)cc23)no1` [Compound I-12, 3-(6-fluoro-5-(4-(3-hydroxyoxetan-3-yl)phenyl)-1H-indol-3-yl)-1,2,4-oxadiazol-5(4H)-one], the AC50 at AMPK (A2/B1/G2) and at AMPK (A2/B1/G3) was 10 to 500 nM throughout.
Turning to `O=c1[nH]c(-c2c[nH]c3cc(F)c(-c4ccc(C5(O)CCC5)cc4)cc23)no1` [Compound I-7, 3-(6-fluoro-5-(4-(1-hydroxycyclobutyl)phenyl)-1H-indol-3-yl)-1,2,4-oxadiazol-5(4H)-one], the glucose uptake result is listed as “induced glucose uptake” in assay [1], “did not induce glucose uptake in dose-dependent manner” in assay [2], “induced glucose uptake” in assay [3] and “induced glucose uptake; also recorded: increased glucose uptake” in assay [4]. For the same compound, the “AMPK activation activity (glucose uptake assay)” value in assay [2] (diabetic donor) and in assay [2] (healthy donor) was “did not show AMPK activation activity” throughout. The “dose dependence of glucose uptake (printed: activates insulin)” value in assay [3] (HWP cells, abdomen cells, 100 μM to 0.005 μM, 1 hour) is listed as “dose dependent manner”. Also, the “dose dependence of glucose uptake (printed: activation of insulin / AMPK activation)” value in assay [4] (100 μM to 0.005 μM, 1 hour) is “dose dependence”. Moreover, in assay [5], the “p-AMPK, p-ACC, and p-Raptor expression” value was “could induce”.
In the case of `COc1ccc(-c2cc3c(-c4noc(=O)[nH]4)c[nH]c3cc2F)c(OC)n1` [Compound I-14, 3-(5-(2,6-dimethoxypyridin-3-yl)-6-fluoro-1H-indol-3-yl)-1,2,4-oxadiazol-5(4H)-one], the AC50 on AMPK (A2/B1/G3) and at AMPK (A2/B1/G1) was 10 to 500 nM each time.
Consider `O=c1[nH]c(-c2c[nH]c3ccc(-c4ccc(C5(O)CCC5)cc4)cc23)no1` [Compound I-10, 3-(5-(4-(1-hydroxycyclobutyl)phenyl)-1H-indol-3-yl)-1,2,4-oxadiazol-5(4H)-one], for which the concentration at half-maximal activity (AC50) on AMPK (A2/B1/G2), on AMPK (A2/B1/G3) and on AMPK (A2/B1/G1) was 10 to 500 nM in each case. For the same compound, the glucose uptake entry in assay [1] was “induced glucose uptake”; in assay [2] it was “did not induce glucose uptake in dose-dependent manner”; in assay [3], “induced glucose uptake”; in assay [4], “induced glucose uptake; also recorded: increased glucose uptake”. Further, in assay [5], the “p-AMPK, p-ACC, and p-Raptor expression” value is recorded as “could induce”.
As to `O=c1[nH]c(-c2c[nH]c3cc(F)c(-c4ccc(C5(O)COC5)cc4)c(F)c23)no1` [Compound I-13, 3-(4,6-difluoro-5-(4-(3-hydroxyoxetan-3-yl)phenyl)-1H-indol-3-yl)-1,2,4-oxadiazol-5(4H)-one], the AC50 on AMPK (A2/B1/G2) was at most 10 nM; at AMPK (A2/B1/G3) it was at most 10 nM; at AMPK (A2/B1/G1), 10 to 500 nM. The glucose uptake result in assay [4] is “increased glucose uptake”.

Values taken from patent publication US20250388571A1, “AMP-ACTIVATED PROTEIN KINASE MODULATOR COMPOUNDS AND USES THEREOF” (Biolexis Therapeutics, Inc., priority 2024, published 2025).
